Laboratory results: ChEMBL document CHEMBL5143573, “Cyclohumulanoid Sesquiterpenes Induced by the Noncompetitive Coculture of Phellinus orientoasiaticus and Xylodon flaviporus” (J Nat Prod, 2022)

Legend:
Caco-2 = experiment: Cytotoxicity against human Caco-2 cells assessed as reduction in cell viability at 10 to 100 uM incubated for 48 hrs by MTT assay; type: toxicity, cell-based; conditions: caco-2, 48 h, dose 10-100 µM
RAW264.7 [1] = experiment: Antiinflammatory activity in mouse RAW264.7 cells assessed as inhibition of LPS-induced NO production incubated for 20 hrs by Griess reagent based assay; type: functional, cell-based; conditions: dose 10-100 µM, DDE = dose-dependent effect
RAW264.7 [2] = experiment: Antiinflammatory activity in mouse RAW264.7 cells assessed as inhibition of LPS-induced NO production at 100 uM incubated for 20 hrs by Griess reagent based assay relative to control; type: functional
RAW264.7 [3] = experiment: Cytotoxicity against LPS-stimulated mouse RAW264.7 cells assessed as reduction in cell viability at 10 to 100 uM incubated for 20 hrs by MTT assay; type: toxicity, cell-based; conditions: raw264.7, 20 h, dose 10-100 µM

| SMILES | Activity (Caco-2) | Activity (RAW264.7 [1]) | inhibition at 100 µM (RAW264.7 [2]) | Activity (RAW264.7 [3]) |
| --- | --- | --- | --- | --- |
| CC1=C2C[C@@](C)(C(=O)O)C[C@H]2C[C@]2(C)C[C@H](O)[C@]12O | Non-Toxic | Dde | 36.4% | Non-Toxic |
| CC1=C2C[C@@](C)(C(=O)O)C[C@H]2C[C@]2(C)CC[C@]12O | Non-Toxic | Dde |  | Non-Toxic |
| C[C@H]1CC[C@H](CO)C(CO)=C2[C@H]1CC(C)(C)[C@@H]2O | Non-Toxic | Dde |  | Non-Toxic |
| CC1=C2C[C@@](C)(C(=O)O)C[C@H]2C[C@]2(CO)CC[C@]12O | Non-Toxic | Dde |  | Non-Toxic |
| C[C@H]1CC[C@H](CO)[C@H](CO)C2=C[C@](C)(CO)C[C@H]21 | Non-Toxic | Dde | 38% | Non-Toxic |
| CC1=C2C[C@@](C)(C(=O)O)C[C@H]2C[C@@H](CO)C12CC2 | Non-Toxic | Dde |  | Non-Toxic |
| CC1=C(CO)[C@H](C)C[C@@H]2C[C@](C)(C(=O)O)C=C12 | Non-Toxic | Dde | 34.8% | Non-Toxic |
